Reference: patent US12338220B2, “Antiviral pyrazolopiridinone compounds” (Novartis AG, priority 2019, dated 2025)
Read-outs that look alike come from different tables or passages of the source.

Tested on: HCMV-Rluc virus (AD169 pp28-hRluc rUL131)
Assay: CMV Luciferase Assay of Compounds 243-262 in ARPE-19 cells
Type: cell-based
Details: read-out: CMV-Luc Cellular EC50 in ARPE-19
Method: CMV Luciferase Assay of Compounds 243-262.
Compounds 243-262 were tested in a luminescence assay as follows.
ARPE-19 cells were maintained in growth medium (DMEM/F12 Glutamax+10 fetal bovine serum (FBS)+PenStrep) and, before reaching full confluence, were transferred to a centrifuge tube and spun for 5 minutes at 1000 rpm. The cells were resuspended in assay medium (DMEM/F12 Glutamax+2% FBS+PenStrep) and counted. Cell density was adjusted to one million cells per milliliter and infected with HCMV-Rluc virus (AD169 pp28-hRluc rUL131; MOI 0.6) in a 50 ml conical tube for 2 hours while shaking. After dilution of the infectious suspension ten-fold (to 100,000 cells per milliliter), 8000 cells are directly plated in 384-well plates pre-spotted with the compound to be tested. The cells were incubated for 72 hours at 37 degrees Celsius. Cells were then placed at room temperature and allowed to equilibrate for 20 minutes before addition of the Renilla-Glo (Promega) reagent. After a 10-minute incubation at room temperature, luminescence was measured on a microplate reader.

[1] = Human betaherpesvirus 5, AD169, ARPE-19, 72 h

## Cn1nc(C(=O)NCc2ccc(C#N)cc2)c2c1C(=O)N(CC1(S(N)(=O)=O)CC1)CC2 [Example 262, N-(4-cyanobenzyl)-1-methyl-7-oxo-6-((1-sulfamoylcyclopropyl)methyl)-4,5,6,7-tetrahydro-1H-pyrazolo[3,4-c]pyridine-3-carboxamide]
[1]
  EC50: 252 nM

## CC(=O)Nc1cccc(NS(=O)(=O)C2(CN3CCc4c(C(=O)NCc5ccc(C#N)cc5)nn(C)c4C3=O)CC2)n1 [Example 244, 6-((1-(N-(6-acetamidopyridin-2-yl)sulfamoyl)cyclopropyl)methyl)-N-(4-cyanobenzyl)-1-methyl-7-oxo-4,5,6,7-tetrahydro-1H-pyrazolo[3,4-c]pyridine-3-carboxamide]
[1]
  EC50: 116 nM

## Cn1nc(C(=O)NCc2ccc(Cl)c(F)c2)c2c1C(=O)N(CC1(S(=O)(=O)C(C)(C)[C@H](O)CO)CC1)CC2 [Example 250, (R)—N-(4-chloro-3-fluorobenzyl)-6-((1-((3,4-dihydroxy-2-methylbutan-2-yl)sulfonyl)cyclopropyl)methyl)-1-methyl-7-oxo-4,5,6,7-tetrahydro-1H-pyrazolo[3,4-c]pyridine-3-carboxamide]
[1]
  EC50: 26.7 nM

## Cn1nc(C(=O)NCc2ccc(C#N)cc2)c2c1C(=O)N(CC1(S(=O)(=O)Nc3ccccc3C#N)CC1)CC2 [Example 248, N-(4-cyanobenzyl)-6-((1-(N-(2-cyanophenyl)sulfamoyl)cyclopropyl)methyl)-1-methyl-7-oxo-4,5,6,7-tetrahydro-1H-pyrazolo[3,4-c]pyridine-3-carboxamide]
[1]
  EC50: 10000 nM

## Cn1nc(C(=O)NCc2ccc(C#N)cc2)c2c1C(=O)N(CC1(S(=O)(=O)NCc3cnccn3)CC1)CC2 [Example 260, N-(4-cyanobenzyl)-1-methyl-7-oxo-6-((1-(N-(pyrazin-2-ylmethyl)sulfamoyl)cyclopropyl)methyl)-4,5,6,7-tetrahydro-1H-pyrazolo[3,4-c]pyridine-3-carboxamide]
[1]
  EC50: 278 nM

## Cn1nc(C(=O)NCc2ccc(Cl)c(F)c2)c2c1C(=O)N(CC1(S(=O)(=O)C(C)(C)C(O)CO)CC1)CC2 (stereo not drawn) [Example 249, N-(4-chloro-3-fluorobenzyl)-6-((1-((3,4-dihydroxy-2-methylbutan-2-yl)sulfonyl)cyclopropyl)methyl)-1-methyl-7-oxo-4,5,6,7-tetrahydro-1H-pyrazolo[3,4-c]pyridine-3-carboxamide]
[1]
  EC50: 8.24 nM

## Cn1nc(C(=O)NCc2ccc(C#N)cc2)c2c1C(=O)N(CC1(S(=O)(=O)Nc3ncccc3F)CC1)CC2 [Example 247, N-(4-cyanobenzyl)-6-((1-(N-(3-fluoropyridin-2-yl)sulfamoyl)cyclopropyl)methyl)-1-methyl-7-oxo-4,5,6,7-tetrahydro-1H-pyrazolo[3,4-c]pyridine-3-carboxamide]
[1]
  EC50: 388 nM

## Cn1nc(C(=O)NCc2ccc(C#N)cc2)c2c1C(=O)N(CC1(S(=O)(=O)NCc3ncccn3)CC1)CC2 [Example 258, N-(4-cyanobenzyl)-1-methyl-7-oxo-6-((1-(N-(pyrimidin-2-ylmethyl)sulfamoyl)cyclopropyl)methyl)-4,5,6,7-tetrahydro-1H-pyrazolo[3,4-c]pyridine-3-carboxamide]
[1]
  EC50: 688 nM

## CC(NS(=O)(=O)C1(CN2CCc3c(C(=O)NCc4ccc(C#N)cc4)nn(C)c3C2=O)CC1)c1cnccn1 (stereo not drawn) [Example 259, N-(4-cyanobenzyl)-1-methyl-7-oxo-6-((1-(N-(1-(pyrazin-2-yl)ethyl)sulfamoyl)cyclopropyl)methyl)-4,5,6,7-tetrahydro-1H-pyrazolo[3,4-c]pyridine-3-carboxamide]
[1]
  EC50: 714 nM

## Cn1nc(C(=O)NCc2ccc(C#N)cc2)c2c1C(=O)N(CC1(S(=O)(=O)Nc3cnccn3)CC1)CC2 [Example 245, N-(4-cyanobenzyl)-1-methyl-7-oxo-6-((1-(N-(pyrazin-2-yl)sulfamoyl)cyclopropyl)methyl)-4,5,6,7-tetrahydro-1H-pyrazolo[3,4-c]pyridine-3-carboxamide]
[1]
  EC50: 181 nM

## Cn1nc(C(=O)NCc2ccc(C#N)cc2)c2c1C(=O)N(CC1(S(=O)(=O)NC(CO)(CO)CO)CC1)CC2 [Example 261, N-(4-cyanobenzyl)-6-((1-(N-(1,3-dihydroxy-2-(hydroxymethyl)propan-2-yl)sulfamoyl)cyclopropyl)methyl)-1-methyl-7-oxo-4,5,6,7-tetrahydro-1H-pyrazolo[3,4-c]pyridine-3-carboxamide]
[1]
  EC50: 2580 nM

## Cn1nc(C(=O)NCc2ccc(C#N)cc2)c2c1C(=O)N(CC1(S(=O)(=O)Nc3ccccc3)CC1)CC2 [Example 246, N-(4-cyanobenzyl)-1-methyl-7-oxo-6-((1-(N-phenylsulfamoyl)cyclopropyl)methyl)-4,5,6,7-tetrahydro-1H-pyrazolo[3,4-c]pyridine-3-carboxamide]
[1]
  EC50: 74.5 nM

## Cn1nc(C(=O)NCc2ccc(C#N)cc2)c2c1C(=O)N(CC1(S(=O)(=O)NC(C)(C)CC(N)=O)CC1)CC2 [Example 253, 6-((1-(N-(4-amino-2-methyl-4-oxobutan-2-yl)sulfamoyl)cyclopropyl)methyl)-N-(4-cyanobenzyl)-1-methyl-7-oxo-4,5,6,7-tetrahydro-1H-pyrazolo[3,4-c]pyridine-3-carboxamide]
[1]
  EC50: 386 nM

## Cn1nc(C(=O)NCc2ccc(C#N)cc2)c2c1C(=O)N(CC1(S(=O)(=O)N3C[C@H](O)[C@@H](O)C3)CC1)CC2 [Example 255, N-(4-cyanobenzyl)-6-((1-(((3S,4S)-3,4-dihydroxypyrrolidin-1-yl)sulfonyl)cyclopropyl)methyl)-1-methyl-7-oxo-4,5,6,7-tetrahydro-1H-pyrazolo[3,4-c]pyridine-3-carboxamide]
[1]
  EC50: 313 nM

## Cn1nc(C(=O)NCc2ccc(C#N)cc2)c2c1C(=O)N(CC1(S(=O)(=O)C(C)(C)C(O)CO)CC1)CC2 (stereo not drawn) [Example 252, N-(4-cyanobenzyl)-6-((1-((3,4-dihydroxy-2-methylbutan-2-yl)sulfonyl)cyclopropyl)methyl)-1-methyl-7-oxo-4,5,6,7-tetrahydro-1H-pyrazolo[3,4-c]pyridine-3-carboxamide]
ARPE-19 cells, MOI 0.6, 72 hours
  EC50: 21.9 nM

## Cn1nc(C(=O)NCc2ccc(C#N)cc2)c2c1C(=O)N(CC1(S(=O)(=O)NC(C)(CO)CO)CC1)CC2 [Example 257, N-(4-cyanobenzyl)-6-((1-(N-(1,3-dihydroxy-2-methylpropan-2-yl)sulfamoyl)cyclopropyl)methyl)-1-methyl-7-oxo-4,5,6,7-tetrahydro-1H-pyrazolo[3,4-c]pyridine-3-carboxamide]
[1]
  EC50: 358 nM

## Cn1nc(C(=O)NCc2ccc(Cl)c(F)c2)c2c1C(=O)N(CC1(S(=O)(=O)C(C)(C)[C@@H](O)CO)CC1)CC2 [Example 251, (S)—N-(4-chloro-3-fluorobenzyl)-6-((1-((3,4-dihydroxy-2-methylbutan-2-yl)sulfonyl)cyclopropyl)methyl)-1-methyl-7-oxo-4,5,6,7-tetrahydro-1H-pyrazolo[3,4-c]pyridine-3-carboxamide]
[1]
  EC50: 9.83 nM

## Cn1nc(C(=O)NCc2ccc(C#N)cc2)c2c1C(=O)N(CC1(S(=O)(=O)NC3(c4cccnn4)CC3)CC1)CC2 [Example 256, N-(4-cyanobenzyl)-1-methyl-7-oxo-6-((1-(N-(1-(pyridazin-3-yl)cyclopropyl)sulfamoyl)cyclopropyl)methyl)-4,5,6,7-tetrahydro-1H-pyrazolo[3,4-c]pyridine-3-carboxamide]
[1]
  EC50: 10000 nM
